How the values were obtained:
CD34^+ cells = test: Expansion of CD34+ cells using human cord blood-derived CD34+ cells (Assay Example 1); type: cell-based; conditions: 100 ng/mL SCF, 7 days, based on the number of CD34^+ cells in the absence of compound
Experimental: (§1) Human cord blood-derived CD34^+ cells were purchased from Lonza and plated on a 24-well plate (Corning) (10000 cells/1 mL/well). As the culture medium, StemSpan SFEM (StemCell Technologies) containing 100 ng/mL SCF (Wako Pure Chemical Industries) was used, and one of Compounds No. 1 to 72 dissolved in dimethyl sulfoxide was added in an amount of 0.1% (v/v) to a final concentration of 1 or 3 μg/mL. As a positive control, TPO (PeproTech) was used at a final concentration of 10 ng/mL.
(§2) After the cells were incubated in liquid culture at 37° C. for 7 days in a CO2 incubator (5% CO2), the number of viable cells was counted by trypan blue assay. The number of CD34^+CD38^− cells was calculated as follows. After the incubation, the cells in the liquid culture was stained with a CD34 antibody (APC, Becton, Dickinson and Company) and a CD38 antibody (PE, Becton, Dickinson and Company), then washed with PBS(−) containing 2% (v/v) FBS and stained with propidium iodide (Sigma-Aldrich Japan) added to a final concentration of 5 μg/mL. The stained cells were analyzed with a BD FACSCANTO™ II flow cytometer (Becton, Dickinson and Company) to determined the proportions of CD34^+ cells and CD34^+CD38^− cells, which was multiplied by the number of viable cells to calculate the numbers of CD34^+ cells and CD34^+CD38^− cells.
(§3) The expansion efficiencies in the presence of 1 or 3 μg/mL of compounds based on the number of CD34^+ cells in the absence of them are shown in Tables 3-1 and 3-2 on a scale of A for expansion efficiencies of 6 or greater, B for expansion efficiencies of at least 4 and less than 6, and C for expansion efficiencies of at least 2 and less than 4. The expansion efficiencies in the presence of 1 or 3 μg/mL of compounds based on the number of CD34^+CD38^− cells in the absence of them are shown in Tables 4-1 and 4-2 on a scale of A for expansion efficiencies of 10 or greater, B for expansion efficiencies of at least 5 and less than 10, and C for expansion efficiencies of at least 3 and less than 5. Further, in Table 3, the compounds with an expansion efficiency twice or more greater than that of TPO are marked with O.

CD34^+CD38^− cells = test: Expansion of CD34+CD38- cells using human cord blood-derived CD34+ cells (Assay Example 1); type: cell-based; conditions: for Expansion efficiency (CD34^+CD38^− cells): 100 ng/mL SCF, 7 days, based on the number of CD34^+CD38^− cells in the absence of compound; for Comparison with TPO: CD34^+CD38^− cells
Experimental: as §1, §2, §3

[1] = 3 μg/mL compound vs TPO 10 ng/mL

Row | Compound | Expansion efficiency (CD34^+ cells) (CD34^+ cells; 3 μg/mL compound) | Expansion efficiency (CD34^+CD38^− cells) (CD34^+CD38^− cells; 3 μg/mL compound) | Expansion efficiency (CD34^+ cells) (CD34^+ cells; 1 μg/mL compound) | Comparison with TPO (CD34^+CD38^− cells; 1 μg/mL compound vs TPO 10 ng/mL) | Expansion efficiency (CD34^+CD38^− cells) (CD34^+CD38^− cells; 1 μg/mL compound) | Comparison with TPO (CD34^+CD38^− cells; [1])
1 | CC(=NNC(=O)c1ccc(C(=O)NCc2ccc(C(=O)NCc3ccco3)cc2)s1)c1csc(-c2ccc(Cl)c(Cl)c2)c1O [compound 7] | C (C for expansion efficiencies of at least 2 and less than 4) | B (B for expansion efficiencies of at least 5 and less than 10) |  |  |  | 
2 | CC(=NNC(=O)c1ccc(C(=O)NCc2ccc(C(=O)NCCN3CCNCC3)cc2)s1)c1csc(-c2ccc(Cl)c(Cl)c2)c1O [compound 28] | B (B for expansion efficiencies of at least 4 and less than 6) | A (A for expansion efficiencies of 10 or greater) |  |  |  | 
3 | CC(=O)NCc1ccc(CNC(=O)c2ccc(C(=O)NN=C(C)c3csc(-c4ccc(OC(F)(F)F)cc4)c3O)s2)cc1 [compound 57] | B (B for expansion efficiencies of at least 4 and less than 6) | A (A for expansion efficiencies of 10 or greater) |  |  |  | 
4 | CC(=NNC(=O)c1ccc(C(=O)NCc2ccc(C(=O)NCc3ccco3)cc2)s1)c1csc(-c2ccc(Br)cc2)c1O [compound 9] | C (C for expansion efficiencies of at least 2 and less than 4) | B (B for expansion efficiencies of at least 5 and less than 10) |  |  |  | 
5 | CC(=NNC(=O)c1ccc(C(=O)NCc2ccc(CC(N)=O)cc2)s1)c1csc(-c2ccc(C(C)(C)C)cc2)c1O [compound 67] |  |  | B (B for expansion efficiencies of at least 4 and less than 6) | ∘ | A (A for expansion efficiencies of 10 or greater) | 
6 | CC(=NNC(=O)c1ccc(C(=O)NCc2ccc(C(=O)NCCO)cc2)s1)c1csc(-c2ccc(Cl)c(Cl)c2)c1O [compound 13] | A (A for expansion efficiencies of 6 or greater) | A (A for expansion efficiencies of 10 or greater) |  |  |  | ∘
7 | CC(=NNC(=O)c1ccc(C(=O)NCc2ccc(C(=O)NCCOCCO)cc2)s1)c1csc(-c2ccc(C(F)(F)F)cc2)c1O [compound 62] | A (A for expansion efficiencies of 6 or greater) | A (A for expansion efficiencies of 10 or greater) |  |  |  | ∘
8 | COCCOCCNC(=O)c1ccc(CNC(=O)c2ccc(C(=O)NN=C(C)c3csc(-c4ccc(Cl)c(Cl)c4)c3O)s2)cc1 [compound 31] | C (C for expansion efficiencies of at least 2 and less than 4) | A (A for expansion efficiencies of 10 or greater) |  |  |  | 
9 | CC(=NNC(=O)c1ccc(C(=O)NCc2ccc(C(=O)NCC3CCCO3)cc2)s1)c1csc(-c2ccc(Br)cc2)c1O (stereo not drawn) [compound 12] | A (A for expansion efficiencies of 6 or greater) | A (A for expansion efficiencies of 10 or greater) |  |  |  | 
10 | C/C(=N\NC(=O)c1ccc(C(=O)NCc2ccc(S(=O)(=O)NCCOCCO)cc2)s1)c1csc(-c2ccc(Cl)c(Cl)c2)c1O [compound 1] | C (C for expansion efficiencies of at least 2 and less than 4) | A (A for expansion efficiencies of 10 or greater) |  |  |  | 
11 | CC(=O)NCc1ccc(CNC(=O)c2ccc(C(=O)NN=C(C)c3csc(-c4ccc(Cl)c(Cl)c4)c3O)s2)cc1 [compound 52] |  |  | A (A for expansion efficiencies of 6 or greater) |  | A (A for expansion efficiencies of 10 or greater) | 
12 | CC(=NNC(=O)c1ccc(C(=O)NCc2ccc(C(=O)NCCN3CCOCC3)cc2)s1)c1csc(-c2ccc(Br)cc2)c1O [compound 21] | A (A for expansion efficiencies of 6 or greater) | A (A for expansion efficiencies of 10 or greater) |  |  |  | ∘
13 | CC(=NNC(=O)c1ccc(C(=O)NCc2ccc(C(=O)NCCOCCO)cc2)s1)c1csc(-c2ccc(Cl)cc2)c1O [compound 63] | A (A for expansion efficiencies of 6 or greater) | A (A for expansion efficiencies of 10 or greater) |  |  |  | ∘
14 | CC(=NNC(=O)c1ccc(C(=O)NCc2ccc(S(=O)(=O)NCCOCCO)cc2)s1)c1csc(-c2ccc(Br)cc2)c1O [compound 3] | C (C for expansion efficiencies of at least 2 and less than 4) | A (A for expansion efficiencies of 10 or greater) |  |  |  | 
15 | CC(=NNC(=O)c1ccc(C(=O)NCc2ccc(C(=O)NCC3CCCO3)cc2)s1)c1csc(-c2ccc(C(C)(C)C)cc2)c1O (stereo not drawn) [compound 11] | A (A for expansion efficiencies of 6 or greater) | A (A for expansion efficiencies of 10 or greater) |  |  |  | 
16 | CC(=O)NCc1ccc(CNC(=O)c2ccc(C(=O)NN=C(C)c3csc(-c4ccc(Br)cc4)c3O)s2)cc1 [compound 54] |  |  | A (A for expansion efficiencies of 6 or greater) |  | A (A for expansion efficiencies of 10 or greater) | 
17 | CCCCOCCOCCNC(=O)c1ccc(CNC(=O)c2ccc(C(=O)NN=C(C)c3csc(-c4ccc(C(C)(C)C)cc4)c3O)s2)cc1 [compound 35] | C (C for expansion efficiencies of at least 2 and less than 4) | B (B for expansion efficiencies of at least 5 and less than 10) |  |  |  | 
18 | CC(=NNC(=O)c1ccc(C(=O)NCc2ccc(CC(N)=O)cc2)s1)c1csc(-c2ccc(OC(F)(F)F)cc2)c1O [compound 71] | A (A for expansion efficiencies of 6 or greater) | A (A for expansion efficiencies of 10 or greater) |  |  |  | 
19 | CC(=NNC(=O)c1ccc(C(=O)NCc2ccc(C(=O)NCCN3CCNCC3)cc2)s1)c1csc(-c2ccc(Br)cc2)c1O [compound 30] | A (A for expansion efficiencies of 6 or greater) | A (A for expansion efficiencies of 10 or greater) |  |  |  | ∘
20 | CC(=NNC(=O)c1ccc(C(=O)NCc2ccc(S(=O)(=O)NCCOCCO)cc2)s1)c1csc(-c2ccc(C(C)(C)C)cc2)c1O [compound 2] | B (B for expansion efficiencies of at least 4 and less than 6) | A (A for expansion efficiencies of 10 or greater) |  |  |  | 
21 | CC(=NNC(=O)c1ccc(C(=O)NCc2ccc(CC(N)=O)cc2)s1)c1csc(-c2ccc(Cl)c(Cl)c2)c1O [compound 66] | C (C for expansion efficiencies of at least 2 and less than 4) | A (A for expansion efficiencies of 10 or greater) |  |  |  | 
22 | CC(=NNC(=O)c1ccc(C(=O)NCc2ccc(C(=O)NCCN(CCO)CCO)cc2)s1)c1csc(-c2ccc(C(C)(C)C)cc2)c1O [compound 23] | A (A for expansion efficiencies of 6 or greater) | A (A for expansion efficiencies of 10 or greater) |  |  |  | ∘
23 | CC(=NNC(=O)c1ccc(C(=O)NCc2ccc(CC(N)=O)cc2)s1)c1csc(-c2ccc(Cl)cc2)c1O [compound 70] | A (A for expansion efficiencies of 6 or greater) | A (A for expansion efficiencies of 10 or greater) |  |  |  | ∘

From patent publication US9328085B2, “Heterocyclic compounds and expansion agents for hematopoietic stem cells” (NISSAN CHEMICAL INDUSTRIES, LTD., priority 2009, dated 2016)
